Data reported in US10322177B2, “Activation of immune-related signaling pathways in cells via optofection” (Nant Holdings IP, LLC, priority 2015, dated 2019).

Tests used:
Assay type in all cases: cell-based, murine
[1] = system: RAW-Lucia ISG cells; assay: RAW-Lucia ISG luciferase reporter, gold nanoparticle optofection of cGAMP (photomicrographs, FIGS. 2A-2C)
Description: FIGS. 2A-2C illustrate experimental evidence indicating the validity of the disclosed techniques though the use of RAW-Lucia® ISG cells that express luciferase when a Type I IFN response pathway is activated (see FIG. 3) by a CDN.
FIG. 2A represents an experiment where gold nanoparticles lacking target cell ligands (here ligand for […]) and cGAMP cargo material are introduced to the cell population. No electro-magnetic stimulation is applied.
FIG. 2B represents an experiment where gold nanoparticles lacking target cell ligands (ligand for CD14) and cGAMP cargo material are introduced to the cell population. In this experiment, the nanoparticles were exposed to 3 mJ pulsed laser. […] The luciferase expression in FIG. 2B is considered to be present in response to random proximity of the gold nanoparticles to cells when the gold nanoparticles are excited by the laser.
FIG. 2C represents an experiment where gold nanoparticles having a CD14 ligand and cGAMP cargo material are both introduced to the cell population. In this case, the nanoparticles attach to the target cells.
The immune response induced in the experiments shown in FIGS. 2A-2C is evidenced by production of luciferase in specifically targeted cells. A mentioned previously, the specifically target cells selected for the experiments were RAW-Lucia™ ISG cells commercially available from InvivoGen® (see URL www.invivogen.com/raw-lucia-isg). The RAW-Lucia cells express luciferase gene (Lucia) through various IFN-stimulated response elements (ISRE) as indicated in FIG. 3. Thus, when an IFN response is stimulated, the cells express the luciferase gene. Of specific note, when CDNs are introduced to the RAW-Lucia cells, the IFN response is activated causing expression of the luciferase gene. Therefore, FIG. 2C clearly provides evidence via substantial luciferase expression that the disclosed technique of causing a cell to uptake CDNs (e.g., cGAMP, etc.) via externally generated poration is capable of inducing an immune response. Such result is not necessarily predictable as laser excitation and concomitant cavitation events may damage or interfere with signal transduction events.

[2] = system: RAW-Lucia target cells; assay: Relative luciferase activity of RAW-Lucia cells under treatment configurations (FIG. 4)
Description: (§1) FIG. 4 provides further experimental evidence with respect to the efficiency of cargo delivery to the specific target cells. The two charts show the relative luciferase activity of RAW-Lucia target cells four hours after treatment and 24 hours after treatment under different treatment configurations.
Treatment configuration 1 represents a cell population having no treatment where no nanoparticles and no laser are introduced to the RAW-Lucia cell population.
Treatment configuration 2 represents a cell population treated with CD14 ligand coated gold nanoparticles and a 10 uM cGAMP solution.
Treatment configuration 3 is similar to treatment configuration 2 with the exception that a 1 uM cGAMP solution was introduced to the cell population rather than a 10 uM cGAMP solution.
Treatment configuration 4 includes treating the target cells with just nanoparticles coated with CD14 ligand followed by application of laser stimulation.
Treatment configuration 5 is similar to Treatment 4, although lacking laser stimulation.
Treatment configuration 6 includes treating the cell population with just a 10 uM cGAMP solution without nanoparticles or application of laser stimulation.

[3] = system: RAW-Lucia target cells; assay: Relative luciferase activity of RAW-Lucia cells after BLAST delivery (FIG. 5); conditions: Treatment 2: BLAST, 2.5 uM cGAMP solution; 4 hour and 24 hour
Description: as §1, with “FIG. 5” for “FIG. 4”, “target cells with respect to using a biophotonic laser-assisted surgery tool (BLAST, as described in Nature Methods 12, 439-444 (2015)).” for “target cells.”, “charts of FIG. 5” for “charts”, “under three” for “under”
Treatment configuration 1 represents a control group where the cell population is not treated in order to provide a base line result.
Treatment configuration 2 leverages BLAST where the cell population is bathed in a 2.5 uM cGAMP solution.
Treatment configuration 3 includes co-incubation of the cell populations with a 2.5 uM cGAMP solution. However, the cell population is not exposed to laser stimulation via BLAST.
It should be appreciated that FIG. 5 illustrates the efficacy of a method of inducing an interferon response in specific target cells, including target cells within a heterogeneous cell population. Free cyclic di-nucleotide cargo (i.e., cGAMP in the scenario of FIG. 5) was introduced to the cell population such that the cGAMP remained external to the target cells in a 2.5 uM solution. […]

[4] = gold nanoparticles having a CD14 ligand plus cGAMP, 2 mJ pulsed laser (FIG. 2C)

For `Nc1nc2c(ncn2[C@@H]2O[C@@H]3COP(=O)(O)O[C@H]4[C@@H](O)[C@H](n5cnc6c(N)ncnc65)O[C@@H]4COP(=O)(O)O[C@@H]2[C@@H]3O)c(=O)[nH]1` [cGAMP], the cell viability [1, 4] was “substantially all cells retained viability”, the luciferase expression [1, 4] was “nearly all cells express luciferase” and the luciferase expression ([1]; gold nanoparticles lacking target cell ligands plus cGAMP, 3 mJ pulsed laser (FIG. 2B)) was “some cells express luciferase”. For the same compound, the luciferase expression ([1]; gold nanoparticles lacking target cell ligands plus cGAMP, no electro-magnetic stimulation (FIG. 2A)) was “very little or negligible luciferase expression”, the relative luciferase activity ([2]; Treatment 2: CD14 ligand coated gold nanoparticles, 10 uM cGAMP solution, laser, 4 h and 24 h after treatment) was “significant luciferase activity” and the relative luciferase activity ([2]; Treatment 3: CD14 ligand coated gold nanoparticles, 1 uM cGAMP solution, laser, 4 h and 24 h after treatment) was “fairly similar to Treatment 2”. The relative luciferase activity ([2]; Treatment 6: 10 uM cGAMP solution only, no nanoparticles, no laser) was “reduced level of luciferase activity” and the relative luciferase activity [3] was “significant luciferase activity”.
